Test results as given in US20100086546A1, “Toll-LIke Receptor 4 Deficiency and Downstream Effectors Cause Pulmonary Emphysema” (Yale University, priority 2007, published 2010).

Legend:
Tlr4−/− MLECs = test: Elastolytic activity in Tlr4−/− MLECs treated with DPI, NAC or apocynin; type: cell-based, mouse; settings: DPI 10 μM, NAC 100 μM, apocynin 10 μM; 24 hours
Method: MLECs were isolated by as described by Kuhlencordt et al. (Kuhlencordt P. J., et al., 2004, Am. J. Physiol. Cell Physiol. 286:C1195C1202.), with some modifications. Briefly, lungs were extracted, minced, and digested for 1 hour at 37° C. with 0.1% collagenase (Roche Diagnostics) in RPMI-1640 with 100 U/ml penicillin G and 100 μg/ml streptomycin. The digest was passed through a 100-μm cell strainer to remove undigested tissue fragments. Cells were pelleted at 200 g for 5 minutes; resuspended in MLEC medium containing 20% FBS, 40% DMEM, and 40% F12 with 100 U/ml penicillin G and 100 μg/ml streptomycin; and plated onto 0.1% gelatin-coated T75 flasks. Cells were washed after 24 hours and cultured for 2-4 days. Cells were trypsinized with 2 ml trypsin/EDTA, PBS added, and spun for 5 minutes at 200 g to remove the supernatant. Cells were resuspended in 2% FBS containing 10 μl biotin-labeled rat anti-mouse CD31 (PECAM-1) antibody (BD Biosciences—Pharmingen). After incubation on ice for 30 minutes, the cells were washed with streptavidin magnetic beads (New England Biolabs Inc.). Cells were washed with 2% FBS, resuspended in 5 ml of 2% FBS, and incubated on ice for 30 minutes. The cells were then placed on the magnet for 5 minutes, and unbound cells were removed while bound cells were resuspended in medium and plated onto a 0.1% gelatin-coated T25 flask. CD31 staining and flow cytometry confirmed that greater than 95% of the cells were endothelial cells. […]
The elastolytic activities in lung tissues, BAL, and cell lysates was determined by hydrolysis of insoluble elastin and detected spectrophotometrically using elastin-Congo red as a substrate according to the method described previously (Rust L., et al., 1994, Methods Enzymol. 235:554-562). […] The optical density of the supernatant was measured at 485 nm with a DYNEX Revelation version 3.2 spectrophotometer. The elastolytic activity was calculated as ng elastase/μg protein in the lysates according to the standard curve established by the reaction of porcine elastase and elastin-Congo red.

Tlr4−/− mice [1] = test: Emphysema (lung volume, chord length, histology) in Tlr4−/− mice on antioxidant therapy; type: in vivo, mouse; settings: NAC 1 g/kg or apocynin 3 mg/kg in drinking water from 3 weeks, sacrificed at 3 months
Description: Tlr4^−/− and MyD88^−/− mice have been previously described (Zhang X., et al., 2005, J. Immunol. 175:4834-4838; Adachi O., et al., 1998, Immunity. 9:143-150; Hoshino K., et al., 1999, J. Immunol. 162:3749-3752). TLR4-deficient mouse lines C3H/HeJ and C57BL/10ScNJ and their respective controls were purchased from The Jackson Laboratory. C57BL/6J Tlr4^−/− mice were generated after greater than 10 generations of backcrossing onto a C57BL/6J background. WT littermates were used as controls. For antioxidant therapy, Tlr4^−/− mice were randomized into 3 groups at 3 weeks of age—NAC (1 g/kg body weight; Sigma-Aldrich) (apocynin (3 mg/kg body weight; Calbiochem; EMD Biosciences) (or vehicle-only drinking water—and then sacrificed at 3 months. Mice were maintained under specific pathogen-free conditions at the animal facility of Yale University School of Medicine. Animal protocols were reviewed and approved by the Animal Care and Use Committee at Yale University. Mice were anesthetized, the trachea was cannulated, and the lungs were removed and inflated with PBS at 25 cm H2O. The size of the lung was evaluated by volume displacement. Hematoxylin and eosin (H&E) or periodic acid-Schiff with diastase (PAS) staining was performed after pressure fixation with Streck solution (Streck Laboratories) in the Research Pathology Laboratory at Yale University. […]

Tlr4−/− mice [2] = test: Total antioxidant capacity in BAL and serum of Tlr4−/− mice on antioxidant therapy; type: in vivo, mouse; settings: NAC 1 g/kg or apocynin 3 mg/kg in drinking water from 3 weeks, sacrificed at 3 months; for total antioxidant content in serum: serum (data not shown)
Description: Tlr4^−/− and MyD88^−/− mice have been previously described (Zhang X., et al., 2005, J. Immunol. 175:4834-4838; Adachi O., et al., 1998, Immunity. 9:143-150; Hoshino K., et al., 1999, J. Immunol. 162:3749-3752). TLR4-deficient mouse lines C3H/HeJ and C57BL/10ScNJ and their respective controls were purchased from The Jackson Laboratory. C57BL/6J Tlr4^−/− mice were generated after greater than 10 generations of backcrossing onto a C57BL/6J background. WT littermates were used as controls. For antioxidant therapy, Tlr4^−/− mice were randomized into 3 groups at 3 weeks of age—NAC (1 g/kg body weight; Sigma-Aldrich) (apocynin (3 mg/kg body weight; Calbiochem; EMD Biosciences) (or vehicle-only drinking water—and then sacrificed at 3 months. Mice were maintained under specific pathogen-free conditions at the animal facility of Yale University School of Medicine. Animal protocols were reviewed and approved by the Animal Care and Use Committee at Yale University. Total antioxidant capacity was measured in cell-free BAL and serum using the Quantitative Assay for Total Antioxidant Potential kit (Oxis International Inc.) according to the manufacturer's instructions. […] Bathocuproine selectively forms a 2:1 complex with Cu^+, which has a maximum absorbance at 490 nm. A standard of a known uric acid concentration was used to create a calibration curve. Results are expressed as μM copper-reducing equivalents.

Tlr4−/− mice [3] = test: Elastase inhibitory capacity (EIC) in Tlr4−/− mice on antioxidant therapy; type: in vivo, mouse; settings: NAC 1 g/kg or apocynin 3 mg/kg in drinking water, BAL, 3 months
Description: Tlr4^-/- and MyD88^-/- mice have been previously described (Zhang X., et al., 2005, J. Immunol. 175:4834-4838; Adachi O., et al., 1998, Immunity. 9:143-150; Hoshino K., et al., 1999, J. Immunol. 162:3749-3752). TLR4-deficient mouse lines C3H/HeJ and C57BL/10ScNJ and their respective controls were purchased from The Jackson Laboratory. C57BL/6J Tlr4^-/- mice were generated after greater than 10 generations of backcrossing onto a C57BL/6J background. WT littermates were used as controls. For antioxidant therapy, Tlr4^-/- mice were randomized into 3 groups at 3 weeks of age-NAC (1 g/kg body weight; Sigma-Aldrich) (apocynin (3 mg/kg body weight; Calbiochem; EMD Biosciences) (or vehicle-only drinking water-and then sacrificed at 3 months. Mice were maintained under specific pathogen-free conditions at the animal facility of Yale University School of Medicine. Animal protocols were reviewed and approved by the Animal Care and Use Committee at Yale University. EIC was assessed in BAL and serum using previously described methods (Klumpp T. et al., 1979, Clin. Chem. 25:969-97; […]., et al., 2001, Am. J. Respir. Crit. Care Med. 164:886-890). […] EICs against PPE (type III; Sigma-Aldrich) in BAL and serum were determined using succinyl-[…]-nitroanilide (SAPNA; Sigma-Aldrich) as the elastase substrate. EIC was expressed as percentage of enzyme activity inhibited by serum or BAL samples. […]

Tlr4−/− mice [4] = test: Reduced GSH/oxidized GSH in BAL of Tlr4−/− mice on antioxidant therapy; type: in vivo, mouse; settings: NAC 1 g/kg or apocynin 3 mg/kg in drinking water, 3 months
Description: Tlr4^−/− and MyD88^−/− mice have been previously described (Zhang X., et al., 2005, J. Immunol. 175:4834-4838; Adachi O., et al., 1998, Immunity. 9:143-150; Hoshino K., et al., 1999, J. Immunol. 162:3749-3752). TLR4-deficient mouse lines C3H/HeJ and C57BL/10ScNJ and their respective controls were purchased from The Jackson Laboratory. C57BL/6J Tlr4^−/− mice were generated after greater than 10 generations of backcrossing onto a C57BL/6J background. WT littermates were used as controls. For antioxidant therapy, Tlr4^−/− mice were randomized into 3 groups at 3 weeks of age—NAC (1 g/kg body weight; Sigma-Aldrich) (apocynin (3 mg/kg body weight; Calbiochem; EMD Biosciences) (or vehicle-only drinking water—and then sacrificed at 3 months. Mice were maintained under specific pathogen-free conditions at the animal facility of Yale University School of Medicine. Animal protocols were reviewed and approved by the Animal Care and Use Committee at Yale University. The ratio of reduced GSH to oxidized GSH was measured in cell-free BAL using GSH/GSSG-412 kit (Oxis International Inc.) according to the manufacturer's instructions.

[5] = tested on: elastase- and cigarette smoke-induced emphysema; settings: aerosolized; cited from earlier work

Molecule | elastolytic activity in Tlr4−/− MLECs (Tlr4−/− MLECs) | TLR4-mediated emphysema (lung volume, mean linear chord length, histology) (Tlr4−/− mice [1]) | total antioxidant content in BAL (Tlr4−/− mice [2]) | total antioxidant content in serum (Tlr4−/− mice [2]) | EIC (Tlr4−/− mice [3]) | GSH levels (reduced GSH/oxidized GSH ratio) (Tlr4−/− mice [4]) | protection against emphysema [5]
c1ccc2c(c1)[I+]c1ccccc1-2 [DPI, diphenylene iodonium] | reversed to levels achieved by the broad-acting antioxidant NAC |  |  |  |  |  | 
CC(=O)N[C@@H](CS)C(=O)O [NAC] | reversed | prevented TLR4-mediated emphysema | increased the total antioxidant content in BAL | increased the total antioxidant content | an increase in the EIC | increased GSH levels | 
COc1cc(C(C)=O)ccc1O [apocynin] | reversed to levels achieved by the broad-acting antioxidant NAC | prevented TLR4-mediated emphysema | increased the total antioxidant content in BAL | increased the total antioxidant content | an increase in the EIC | increased GSH levels | 
Hyaluronan [HA] |  |  |  |  |  |  | protects against elastase- and cigarette smoke-induced emphysema
